For data set [1], the system named is rats suffering from TBI. The following applies: 16 mg/kg, 72 hours post-injury, FIG. 1, p<0.05; cited from earlier work.
The test system of data set [2] is rats following injury. The following applies: cited from earlier work.
Data set [3] deals with rats that have suffered a concussion. Briefly: Morris Water Maze latency to platform in mTBI (concussion) model. The class given is in vivo. The conditions noted are these: versus vehicle-injured rats, FIG. 8.
The subject of data set [4] is moderate to severe TBI patients. The following applies: cited from earlier work.
Data set [5] deals with males. The conditions noted are these: in males; cited from earlier work.
The test system of data set [6] is glutathione reductase. The conditions noted are these: 72 hours post-injury, compared to all other groups, FIG. 2, p<0.01; cited from earlier work.
Data set [7] has as its target T1, progesterone receptor (PR) (Homo sapiens, UniProt P06401).
T1 sequence (P06401 1-933): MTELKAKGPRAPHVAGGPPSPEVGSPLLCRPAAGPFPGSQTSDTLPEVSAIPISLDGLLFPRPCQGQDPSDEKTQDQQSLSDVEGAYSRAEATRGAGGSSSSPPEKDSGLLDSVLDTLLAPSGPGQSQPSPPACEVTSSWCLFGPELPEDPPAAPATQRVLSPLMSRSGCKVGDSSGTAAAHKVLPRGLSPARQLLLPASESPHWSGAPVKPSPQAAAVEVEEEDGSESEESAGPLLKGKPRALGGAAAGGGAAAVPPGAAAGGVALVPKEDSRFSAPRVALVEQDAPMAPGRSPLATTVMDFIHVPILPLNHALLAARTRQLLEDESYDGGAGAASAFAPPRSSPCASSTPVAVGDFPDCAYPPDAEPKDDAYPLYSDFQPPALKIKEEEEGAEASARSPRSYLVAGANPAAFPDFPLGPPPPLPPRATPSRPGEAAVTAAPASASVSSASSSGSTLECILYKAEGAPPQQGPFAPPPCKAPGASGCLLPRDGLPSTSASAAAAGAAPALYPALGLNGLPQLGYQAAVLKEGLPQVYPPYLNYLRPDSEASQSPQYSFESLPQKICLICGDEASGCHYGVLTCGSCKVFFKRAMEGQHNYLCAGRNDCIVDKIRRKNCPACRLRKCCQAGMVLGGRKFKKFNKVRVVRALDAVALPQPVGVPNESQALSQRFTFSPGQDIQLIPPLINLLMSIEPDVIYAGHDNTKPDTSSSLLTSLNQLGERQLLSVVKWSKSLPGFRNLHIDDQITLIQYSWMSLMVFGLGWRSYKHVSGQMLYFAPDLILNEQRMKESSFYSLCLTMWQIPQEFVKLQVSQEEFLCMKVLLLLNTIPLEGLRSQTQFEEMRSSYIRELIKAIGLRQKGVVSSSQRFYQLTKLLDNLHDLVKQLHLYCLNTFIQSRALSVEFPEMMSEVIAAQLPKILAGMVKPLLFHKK
The conditions noted are these: cited from earlier work.

Here are results for three compounds from patent publication US20130090315A1 (priority 2011, published 2013).

The structures appear in SMILES notation.

Regarding `CC(=O)[C@H]1CC[C@H]2[C@@H]3CC[C@H]4C[C@H](O)CC[C@]4(C)[C@H]3CC[C@]12C` [ALLO, allopregnanolone], in data set [1], the “brain water content (measure of edema)” value is “normalizes brain water content”. Also, the “factors of cell death (caspase-3) and gliosis (GFAP)” value in data set [2] was “decreased of the presence of the factors of cell death (caspase-3) and gliosis (GFAP)”.
In the case of `CC(=O)[C@H]1CC[C@H]2[C@@H]3CCC4=CC(=O)CC[C@]4(C)[C@H]3CC[C@]12C` [Prog, progesterone], in data set [3] (15 minutes post mTBI), the “latency to platform, post-acute administration” value is given as “decreases latency to platform”. Also, the “latency to platform, prophylactic administration” value in data set [3] (15 minutes prior to mTBI) is reported as “decreases latency to platform”. In data set [1], the “brain water content (measure of edema)” value is “normalizes brain water content”. Besides, the “30 days post-injury outcomes (Glasgow Outcome Scale-Extended, Disability Rating Scale), moderate TBI” value in data set [4] (moderate TBI patients, 30 days post-injury) was “better outcomes”. For the same compound, the reduction in mortality in data set [4] (moderate to severe TBI patients, 72 hours of continuous intravenous Prog) is given as 50%. In addition, the “30 days post-injury outcomes (Glasgow Outcome Scale-Extended, Disability Rating Scale), severe brain injuries” value in data set [4] (patients with severe brain injuries, 30 days post-injury) is on record as “little measurable difference”. Also, the “neurological outcomes at six months” value in data set [4] (severe TBI patients, six months) is recorded as “better neurological outcomes long-term”. In data set [5], the “conversion of testosterone to dihydrotestosterone” value is given as “inhibits the conversion of testosterone to dihydrotestosterone”, the “size of reproductive organs” value is given as “reduces the size of reproductive organs” and the spermatogenesis entry is “suppresses spermatogenesis”. Also, the “edema in both rodent sexes” value in data set [2] (both rodent sexes) is given as “effectively attenuates edema”. For the same compound, in data set [2], the “factors of cell death (caspase-3) and gliosis (GFAP)” value was “decreased of the presence of the factors of cell death (caspase-3) and gliosis (GFAP)”; the “inflammatory factors (TNF-α and IL-β)” value is “inhibiting inflammatory factors (TNF-α and IL-β)”. The “Neurological Severity Score (motor and cognitive functioning)” value in data set [2] (rats) was “significant improvements”.
Consider `CC(=O)[C@@H]1CC[C@@H]2[C@H]3CCC4=CC(=O)CC[C@@]4(C)[C@@H]3CC[C@]21C` [ent-Prog, ent-progesterone], for which, in data set [1], the “brain water content (measure of edema)” value is “normalizes brain water content”. In data set [6], the “anti-oxidant activity of glutathione reductase” value is given as “significantly increases the anti-oxidant activity of glutathione reductase”. For the same compound, the “activation of PR-mediated transcription” value in data set [7] was “does not activate PR-mediated transcription”.
